Experiment: Fuel solubility: miscibility in blends with commercial diesel
Assay type: physicochemical
Excerpt: Fuel solubility is a primary concern for diesel fuel applications. Not all highly polar oxygenates have good solubility in the current commercial diesel fuels.

[1] = all blend ratios with commercial diesel

miscibility with commercial diesel (5 vol % blend with commercial diesel)	miscibility with commercial diesel (25 vol % blend with diesel)	miscibility with commercial diesel (40 vol % blend with diesel)	Compound	miscibility with commercial diesel [1]
completely miscible	phase separation occurs	phase separation occurs	CCOCc1ccc(C=O)o1 [EMF, 5-(ethoxymethyl)furfural]	–
–	–	–	CCOCc1ccc(COCC)o1 [2,5-di(ethoxymethyl)furan]	miscible in all blend ratio's
–	–	–	CCOCc1ccc(COC(C)(C)C)o1 [5-(tertbutoxymethyl)-2-(ethoxymethyl)furan]	miscible in all blend ratio's

Source: patent US8231693B2, “5-substituted 2-(alkoxymethyl)furans” (Furanix Technologies B.V., priority 2007, dated 2012)
